Measurements taken from publication PMC13338763, “Harnessing albumin as a carrier for the delivery of anti-HIV drugs to the lymphatic system” (Acta biomaterialia, 2025).
≈ marks a conversion by molar mass, not a printed value.

Legend:
Aqueous solubility = assay type: physicochemical; details: water
TZM-bl cells = test: Cell viability assay (CellTiter-Glo 2.0); assay type: cell-based; details: 48 h
Protocol: DTG and hEB-DTG prodrug cytotoxicity was measured at different concentrations against TZM-bl reporter cell line in the presence or absence of HIV-WT virus using the CellTiter-Glo™ 2.0 Assay (Promega, WI, USA) according to the manufacturer’s protocol. TZM-bl cells were seeded in the 96-well white plate at a density of 1 × 10^4 cells/well, and after 24 h, the cells were infected with HIV-WT virus and treated with DTG and hEB-DTG in a concentration range (diluted 1:100) from 3 × 10^−1 mg/mL to 3 × 10^−15 mg/mL. After 48 h, cells were subjected to CellTiter-Glo™ 2.0 Assay (Promega). The CellTiter-Glo™ 2.0 Reagent was equilibrated to room temperature and gently mixed. 100 μL of CellTiter-Glo™ 2.0 Reagent was added to each well containing 100 μL of cells in the medium. Contents were shaken in an orbital shaker for 2 min and incubated at room temperature for precisely 10 min, and then luminescence was measured with a Varioskan LUX Multimode Microplate Reader. Untreated/infected cells were used as a baseline control. Viability of cells was presented as a percentage of OD values of the control cells. For each assay run, data points were collected in triplicate.

HIV-WT virus = test: Drug susceptibility assay (luciferase reporter in TZM-bl cells); assay type: cell-based, human immunodeficiency virus; details: TZM-bl cells infected with HIV-WT, 48 h
Protocol: DTG and hEB-DTG luciferase expression levels were measured at different concentrations against TZM-bl reporter cell line in the presence of HIV-WT virus using the Britelite Plus Ultra-High Sensitivity Luminescence Reporter Gene Assay System (Revvity, MA, USA) according to the manufacturer’s protocol. TZM-bl cells were seeded in clear bottom white 96-well plate in a total volume of 200 μl DMEM-10 complete (+ 10 % FBS + 1 % penicillin/streptomycin) at a density of 1 × 10^4 cells/well. After 24 h, the cells were infected with the HIV-WT virus and treated with DTG and hEB-DTG in a concentration range (serial diluted 1:100) from 3 × 10^−1 mg/mL to 3 × 10^−15 mg/mL in PRF-10 complete media (+10 % FBS + 1 % penicillin/streptomycin). After 48 h of incubation, the cells were subjected to Britelite Plus Ultra-High Sensitivity Luminescence Reporter Gene Assay System (Revvity). The Britelite plus Lyophilized Substrate was reconstituted with the given Britelite Plus Reconstitution Buffer. After gently inverting and settling the solution for 5 min, 100 μL of the reconstituted Britelite Substrate solution was added to each well containing 100 μL of cells in the medium. Luminescence was measured with a Varioskan LUX Multimode Microplate Reader precisely after 2 min. Untreated/infected cells were used as baseline control. The inhibitory concentrations of each drug were presented as a percentage of OD value of the control cells. For each assay run, data points were collected in triplicate.

[1] = PK study: DTG in serum by HPLC-MS; assay type: in vivo, mice
Protocol: Five (5) mg/kg DTG, or hEB-DTG containing equivalent amount of DTG were i.v. injected into mice. After 1, 4, 12, 24 or 48 h, serum and LNs were collected. Samples were homogenized and vortex in 1 mL mixture of water and methanol (1/1, v/v), and then another 1 mL mixture of methanol and acetonitrile (1/1, v/v) was added for extraction. After centrifugation at 12,500 g for 10 min, the supernatants were collected for measurement under HPLC-MS with a previously reported method. For hydrolysis of the ester bond in hEB-DTG to release free DTG, the biological samples suspension mentioned above were incubated in 300 mg/mL guanidine hydrochloride solution at 80 °C for 24 h before extraction.

BSA = BSA (Bos taurus, UniProt P02769); test: Gel retardation study with BSA; assay type: binding, bovine; details: in words
BSA, sequence (P02769 25-607): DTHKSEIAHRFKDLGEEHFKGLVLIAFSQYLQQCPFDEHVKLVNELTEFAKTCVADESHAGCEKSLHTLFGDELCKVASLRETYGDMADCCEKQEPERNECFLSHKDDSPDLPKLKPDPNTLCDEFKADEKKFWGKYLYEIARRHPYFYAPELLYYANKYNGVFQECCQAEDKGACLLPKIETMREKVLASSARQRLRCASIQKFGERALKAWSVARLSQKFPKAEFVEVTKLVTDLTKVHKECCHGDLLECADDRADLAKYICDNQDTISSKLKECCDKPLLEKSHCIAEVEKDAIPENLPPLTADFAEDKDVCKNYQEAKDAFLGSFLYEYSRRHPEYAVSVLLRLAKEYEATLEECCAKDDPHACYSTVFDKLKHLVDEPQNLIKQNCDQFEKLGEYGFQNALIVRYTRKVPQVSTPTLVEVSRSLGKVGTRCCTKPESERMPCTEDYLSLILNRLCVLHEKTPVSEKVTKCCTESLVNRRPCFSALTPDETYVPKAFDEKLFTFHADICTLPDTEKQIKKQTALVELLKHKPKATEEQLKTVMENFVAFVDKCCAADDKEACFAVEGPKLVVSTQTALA
Protocol: Twenty (20) μg EB, hEB, hEB-platin, or hEB-DTG were mixed with or without various amounts of BSA, globulin, fibrinogen or FBS in 200 μL saline water, then 40 μL of the mixed solution were loaded to 1.5 % agarose gel and run under 120 V for 30 min.

HUVEC monolayer = test: Transwell study: transport across a HUVEC monolayer, flow cytometry of HEK293T cells in lower chamber; assay type: cell-based; details: albumin-bound, 8 h, in words
Protocol: HEK293T were seeded to 6-well plates as lower chamber and HUVEC were seeded to Corning (NY, USA) 6-well plate inserts (0.4 μm pore size) in another plate as upper chamber, respectively. After incubation and the cell layer on the upper chamber became intact, the culture medium in the inserts was replaced by fresh medium containing 0, 5 or 20 μg/mL filipin and 0 or 10 μg/mL LPS for overnight incubation. Next, the culture medium in the inserts was replaced with fresh medium containing 10 μM EB, hEB or hEB-DTG and 2 mg/mL BSA, then the inserts were moved to the wells cultured with HEK293T cells for incubation of 8 h at 37 °C. After that, HEK293T cells in the lower chambers were washed with cold PBS.
EB signals in HEK293T cells were quantified by flow cytometry. Fluorescence was examined at an excitation wavelength of 532 nm and an emission wavelength of 660 nm. 10 × 10^4 events were collected for each sample.

HEK293T cells = test: Cellular uptake study in vitro (flow cytometry); assay type: cell-based; details: in words
Protocol: HEK293T or HUVEC cells were seeded to 6-well plates. After overnight incubation, the culture medium was replaced by fresh medium containing 10 μM EB and 2, 5, or 20 mg/mL BSA for incubation of 0.5, 1 or 3 h at 37 °C. Later, cells were washed with cold PBS and fixed with PBS containing 4 % (w/v) formaldehyde.
Cellular uptake of different treatments was quantified by flow cytometry. Fluorescence was examined at an excitation wavelength of 532 nm and an emission wavelength of 660 nm. 10 × 10^4 events were collected for each sample.

[2] = Distribution in LN tissue and cells in LNs after i.v. injection (fluorescence microscopy, flow cytometry); assay type: in vivo; details: in words
Protocol: Five (5) μM/kg EB, hEB or hEB-DTG were i.v. injected into mice pretreated intraperitoneally with or without 2.5 mg/kg LPS for 24 h. After 24 h, LNs from different sites were collected and their signals of EB were checked under fluorescent microscopy. To evaluate the EB signals in various types of cells, LNs were disrupted mechanically using scissors, digested with a mixture of deoxyribonuclease I (0.3 mg/mL, Sigma-Aldrich) and TL Liberase (0.25 mg/mL, Roche, IN, USA) in serum-free RPMI-1640 at 37 °C for 30 min, and dispersed through a 40 μm cell strainer (BD Biosciences, CA, USA). After red blood cell lysis, live/dead cell discrimination was performed using a Zombie NIR Fixable Viability Kit (BioLegend, CA, USA, dilution: 1/1000) at 4 °C for 30 min in DPBS. Surface staining was performed at 4 °C for 30 min in FACS staining buffer (1 × phosphate-buffered saline/5 % FBS/0.5 % sodium azide) containing designated antibody cocktails (PerCP anti-mouse CD45 antibody, Brilliant Violet 785 anti-mouse CD4 antibody, FITC anti-mouse CD8 antibody, APC anti-mouse CD11b antibody, APC/Cyanine7 anti-mouse F4/80 antibody, Pacific Blue anti-mouse CD19 antibody and AF647 anti-mouse CD27 antibody; dilution: 1/200 for all antibodies). Flow cytometry was performed with LSRII (BD Biosciences) and Aurora (Cytek Biosciences, CA, USA) instruments and analyzed by FlowJo (BD Biosciences). The EB signals in each type of cell were quantified as mentioned above.

[3] = Release of DTG from hEB-DTG (storage stability and in vitro release kinetics, HPLC-MS); assay type: physicochemical; details: for DTG released (cumulative): PBS

| SMILES | solubility (Aqueous solubility) [µg/mL] | concentrations above which cell viability began to decline (TZM-bl cells) | concentrations with minimal cytotoxicity (TZM-bl cells) | concentrations that potently inhibited HIV-WT replication (HIV-WT virus) [ng/mL] | clearance ([1]; mouse, serum, iv, single i.v. injection of free DTG 5 mg/kg, one-compartment model, read-out: CL, free DTG in serum (converted)) [mL/min] | half-life ([1]; mouse, serum, iv, single i.v. injection of free DTG 5 mg/kg, one-compartment model, read-out: t1/2, free DTG in serum (converted)) [h] | binding affinity for BSA (BSA) | transport across endothelial cell monolayer (HUVEC monolayer) | cellular uptake (HEK293T cells) | fluorescence signal in LNs ([2]; 24 h post i.v. injection) | uptake by immune cell populations in LNs ([2]; flow cytometry) | DTG released (cumulative) ([3]; 37 °C, over 96 h) | DTG released (cumulative) ([3]; 37 °C, within 24 h) | DTG release in serum compared with PBS ([3]; 37 °C, serum) | DTG released ([3]; over 30 days at room temperature, storage conditions) [%] | antiviral potency relative to free DTG (HIV-WT virus) | released DTG concentration in blood vs free DTG group ([1]; 1 h post-injection) |
| --- | --- | --- | --- | --- | --- | --- | --- | --- | --- | --- | --- | --- | --- | --- | --- | --- | --- |
| C[C@@H]1CCO[C@H]2Cn3cc(C(=O)NCc4ccc(F)cc4F)c(=O)c(O)c3C(=O)N12 [DTG, dolutegravir] | 40 (≈ 0.0954 mM) | exceeded 1 μg/mL | below 100 ng/mL | ≥ 10 | 0.00411 | 3.61 | – | – | – | – | – | – | – | – | – | – | – |
| Cc1cc(-c2ccc(/N=N/c3ccc4c(S(=O)(=O)O)cc(S(=O)(=O)O)c(N)c4c3O)c(C)c2)ccc1N [hEB, half-truncated Evans Blue] | – | – | – | – | – | – | retained strong binding affinity | – | – | – | – | – | – | – | – | – | – |
| Cc1cc(-c2ccc(NCC(=O)Oc3c4n(cc(C(=O)NCc5ccc(F)cc5F)c3=O)C[C@@H]3OCC[C@@H](C)N3C4=O)c(C)c2)ccc1/N=N/c1ccc2c(S(=O)(=O)O)cc(S(=O)(=O)O)c(N)c2c1O [hEB-DTG] | 9640 (≈ 9.62 mM) | exceeded 1 μg/mL | below 100 ng/mL | ≥ 10 | – | – | maintained strong binding ability | successfully transported | efficiently internalized | comparable to that of hEB alone | significant EB signals were detected in all cell types analyzed | ~ 60% | ~ 30% | slower | 0.83 | slightly less potent | slightly higher |
